Like-named read-outs stand apart in the source and are kept apart here.
Target: SARS-CoV-2 Papain like protease (PLpro) (Severe acute respiratory syndrome coronavirus 2 (2019-nCoV) (SARS-CoV-2), UniProt P0DTD1)
Test: Papain Like Protease (PLpro) biochemical assay with profluorogenic substrate Z-RLRGG-AMC
Conditions: SARS-CoV-2 PLpro 6.25 nM, 25 μM Z-RLRGG-AMC substrate, 60 minute reaction

| SMILES | IC50 (read-out: IC50) [µM] | IC50 (IC50 (μM)) [µM] |
| --- | --- | --- |
| Cc1cc(C(=O)NCc2cscn2)ccc1C(=O)N[C@H](C)c1cc(-c2cnn(C)c2)nc2ccccc12 [Example 201, (R)-2-methyl-N1-(1-(2-(1-methyl-1H-pyrazol-4-yl)quinolin-4-yl)ethyl)-N4-(thiazol-4-ylmethyl)terephthalamide] | 0.003 | – |
| Cc1cc(C(=O)NC(C)c2cscn2)ccc1C(=O)N[C@H](C)c1cc(-c2cnn(C)c2)nc2ccccc12 (some centres unmarked) [Example 202] | 0.012 | – |
| Cc1cc(C(=O)NCc2ncsc2C)ccc1C(=O)N[C@H](C)c1cc(-c2cnn(C)c2)nc2ccccc12 [Example 203] | 0.002 | – |
| Cc1nc(CNC(=O)c2ccc(C(=O)N[C@H](C)c3cc(-c4cnn(C)c4)nc4ccccc34)c(C)c2)cs1 [Example 204] | 0.073 | – |
| COc1c(-c2cnn(C)c2)cc(C(C)NC(=O)c2cc(CN)ccc2C)c2ccccc12 (centres unmarked) [Example 205] | 0.043 | – |
| Cc1cc(CNCc2cscn2)ccc1C(=O)NC1(c2cc(-c3cnn(C)c3)nc3ccccc23)CC1 [Example 210] | 0.006 | – |
| Cc1cc(C2(NC(=O)c3cscn3)CC2)ccc1C(=O)N[C@H](C)c1cc(-c2cnn(C)c2)nc2ccccc12 [Example 212, (R)-N-(1-(3-methyl-4-((1-(2-(1-methyl-1H-pyrazol-4-yl)quinolin-4-yl)ethyl)carbamoyl)phenyl)cyclopropyl)thiazole-4-carboxamide] | 0.058 | – |
| Cc1cc(C2(NC(=O)c3ncc[nH]3)CC2)ccc1C(=O)N[C@H](C)c1cc(-c2cnn(C)c2)nc2ccccc12 [Example 213, (R)-N-(1-(3-methyl-4-((1-(2-(1-methyl-1H-pyrazol-4-yl)quinolin-4-yl)ethyl)carbamoyl)phenyl)cyclopropyl)-1H-imidazole-2-carboxamide] | 0.219 | – |
| Cc1cc(C(C)(C)NC(=O)c2cscn2)ccc1C(=O)N[C@H](C)c1cc(-c2cnn(C)c2)nc2ccccc12 [Example 214, (R)-N-(2-(3-methyl-4-((1-(2-(1-methyl-1H-pyrazol-4-yl)quinolin-4-yl)ethyl)carbamoyl)phenyl)propan-2-yl)thiazole-4-carboxamide] | 0.169 | – |
| Cc1cc(C(C)(C)NC(=O)c2ncc[nH]2)ccc1C(=O)N[C@H](C)c1cc(-c2cnn(C)c2)nc2ccccc12 [Example 215, (R)-N-(2-(3-methyl-4-((1-(2-(1-methyl-1H-pyrazol-4-yl)quinolin-4-yl)ethyl)carbamoyl)phenyl)propan-2-yl)-1H-imidazole-2-carboxamide] | 0.144 | – |
| Cc1ccc(N2CCN(C)CC2)cc1C(=O)NC(C)c1cc(-c2cc(C(=O)O)c[nH]2)cc2ccccc12 (centres unmarked) [Example 216, 5-(4-(1-(2-methyl-5-(4-methylpiperazin-1-yl)benzamido)ethyl)naphthalen-2-yl)-1H-pyrrole-3-carboxylic acid] | 0.012 | – |
| Cc1ccc(CN)cc1C(=O)NC(C)c1cc(-c2cnn(C)c2)c(O)c2ccccc12 (centres unmarked) [Example 217, 5-(aminomethyl)-N-(1-(4-hydroxy-3-(1-methyl-1H-pyrazol-4-yl)naphthalen-1-yl)ethyl)-2-methylbenzamide] | 0.119 | – |
| C[C@@H](NC(=O)c1ccccc1CCC(=O)NNC(=O)[C@H]1O[C@@H]1C(=O)O)c1cc(-c2cnn(C)c2)nc2ccccc12 [Example 219, (2S,3S)-3-(2-(3-(2-(((R)-1-(2-(1-methyl-1H-pyrazol-4-yl)quinolin-4-yl)ethyl)carbamoyl)phenyl)propanoyl)hydrazine-1-carbonyl)oxirane-2-carboxylic acid] | 0.001 | – |
| COC(=O)[C@H]1O[C@@H]1C(=O)NNC(=O)CCc1ccccc1C(=O)N[C@H](C)c1cc(-c2cnn(C)c2)nc2ccccc12 [Example 220, methyl(2S,3S)-3-(2-(3-(2-(((R)-1-(2-(1-methyl-1H-pyrazol-4-yl)quinolin-4-yl)ethyl)carbamoyl)phenyl)propanoyl)hydrazine-1-carbonyl)oxirane-2-carboxylate] | 0.002 | – |
| Cc1cc(CNCc2cncn2C)ccc1C(=O)N[C@H](C)c1cc(-c2cnn(C)c2)nc2ccccc12 [Example 221, (R)-2-methyl-4-((((1-methyl-1H-imidazol-5-yl)methyl)amino)methyl)-N-(1-(2-(1-methyl-1H-pyrazol-4-yl)quinolin-4-yl)ethyl)benzamide] | 0.015 | – |
| CO/C=C/C(=O)NNC(=O)CCc1ccccc1C(=O)N[C@H](C)c1cc(-c2cnn(C)c2)nc2ccccc12 [Example 222, (R,E)-2-(3-(2-(3-methoxyacryloyl)hydrazineyl)-3-oxopropyl)-N-(1-(2-(1-methyl-1H-pyrazol-4-yl)quinolin-4-yl)ethyl)benzamide] | 1.98 | – |

| SMILES | IC50 (read-out: IC50) [µM] | IC50 (IC50 (μM)) [µM] |
| --- | --- | --- |
| CNC(=O)/C=C/C(=O)NNC(=O)CCc1ccccc1C(=O)N[C@H](C)c1cc(-c2cnn(C)c2)nc2ccccc12 [Example 223, (R,E)-N-(1-(2-(1-methyl-1H-pyrazol-4-yl)quinolin-4-yl)ethyl)-2-(3-(2-(4-(methylamino)-4-oxobut-2-enoyl)hydrazineyl)-3-oxopropyl)benzamide] | 0.058 | – |
| C[C@@H](NC(=O)c1ccccc1CCC(=O)NNC(=O)/C=C/C(N)=O)c1cc(-c2cnn(C)c2)nc2ccccc12 [Example 224, (R,E)-2-(3-(2-(4-amino-4-oxobut-2-enoyl)hydrazineyl)-3-oxopropyl)-N-(1-(2-(1-methyl-1H-pyrazol-4-yl)quinolin-4-yl)ethyl)benzamide] | 0.006 | – |
| COC(=O)/C=C/C(=O)NNC(=O)CCc1ccccc1C(=O)NC1(c2cc(-c3cnn(C)c3)nc3ccccc23)CC1 [Example 225, methyl (E)-4-(2-(3-(2-((1-(2-(1-methyl-1H-pyrazol-4-yl)quinolin-4-yl)cyclopropyl)carbamoyl)phenyl)propanoyl)hydrazineyl)-4-oxobut-2-enoate] | 0.006 | – |
| Cn1cc(-c2cc(C3(NC(=O)c4ccccc4CCC(=O)NNC(=O)/C=C/C(N)=O)CC3)c3ccccc3n2)cn1 [Example 226, (E)-2-(3-(2-(4-amino-4-oxobut-2-enoyl)hydrazineyl)-3-oxopropyl)-N-(1-(2-(1-methyl-1H-pyrazol-4-yl)quinolin-4-yl)cyclopropyl)benzamide] | 0.017 | – |
| CCOC(=O)[C@H]1O[C@@H]1C(=O)NNC(=O)CCc1ccccc1C(=O)N[C@H](C)c1cc(-c2cnn(C)c2)nc2ccccc12 [Example 227, ethyl (2S,3S)-3-(2-(3-(2-(((R)-1-(2-(1-methyl-1H-pyrazol-4-yl)quinolin-4-yl)ethyl)carbamoyl)phenyl)propanoyl)hydrazine-1-carbonyl)oxirane-2-carboxylate] | 0.002 | – |
| COC(=O)c1c[nH]c(-c2cc(C(C)NC(=O)c3cc(N4CCN(C)CC4)ccc3C)c3ccccc3c2)c1 (centres unmarked) [Example 228, methyl 5-(4-(1-(2-methyl-5-(4-methylpiperazin-1-yl)benzamido)ethyl)naphthalen-2-yl)-1H-pyrrole-3-carboxylate] | 0.007 | – |
| Cc1ccc(N2CCN(C)CC2)cc1C(=O)NC(C)c1cc(-c2cc(C(=O)N(C)C)c[nH]2)cc2ccccc12 (centres unmarked) [Example 229, N,N-dimethyl-5-(4-(1-(2-methyl-5-(4-methylpiperazin-1-yl)benzamido)ethyl)naphthalen-2-yl)-1H-pyrrole-3-carboxamide] | 0.006 | – |
| Cc1ccc(N2CCNCC2)cc1C(=O)NC1(c2cc(-c3cnn(C)c3)cc3ccccc23)CC1 [Example 230, 2-methyl-N-(1-(3-(1-methyl-1H-pyrazol-4-yl)naphthalen-1-yl)cyclopropyl)-5-(piperazin-1-yl)benzamide] | – | 0.003 |
| Cc1ccc(N2CCN(C)CC2)cc1C(=O)NC1(c2cc(-c3cnn(C)c3)cc3ccccc23)CC1 [Example 231, 2-methyl-N-(1-(3-(1-methyl-1H-pyrazol-4-yl)naphthalen-1-yl)cyclopropyl)-5-(4-methylpiperazin-1-yl)benzamide] | – | 0.003 |
| CCOC(=O)/C=C/C(=O)NNC(=O)CCc1ccccc1C(=O)N[C@H](C)c1cc(-c2cnn(C)c2)nc2ccccc12 [Example 232, ethyl (R,E)-4-(2-(3-(2-((1-(2-(1-methyl-1H-pyrazol-4-yl)quinolin-4-yl)ethyl)carbamoyl)phenyl)propanoyl)hydrazineyl)-4-oxobut-2-enoate] | 0.003 | – |
| CC(C)OC(=O)/C=C/C(=O)NNC(=O)CCc1ccccc1C(=O)N[C@H](C)c1cc(-c2cnn(C)c2)nc2ccccc12 [Example 233, isopropyl (R,E)-4-(2-(3-(2-((1-(2-(1-methyl-1H-pyrazol-4-yl)quinolin-4-yl)ethyl)carbamoyl)phenyl)propanoyl)hydrazineyl)-4-oxobut-2-enoate] | 0.003 | – |
| C[C@@H](NC(=O)c1ccccc1CCC(=O)NNC(=O)/C=C/C(=O)N(C)C)c1cc(-c2cnn(C)c2)nc2ccccc12 [Example 234, (R,E)-2-(3-(2-(4-(dimethylamino)-4-oxobut-2-enoyl)hydrazineyl)-3-oxopropyl)-N-(1-(2-(1-methyl-1H-pyrazol-4-yl)quinolin-4-yl)ethyl)benzamide] | 0.128 | – |
| Cc1ccc(N2CCCC(N)C2=O)cc1C(=O)N[C@H](C)c1cc(-c2cnn(C)c2)nc2ccccc12 (some centres unmarked) [Example 235] | 0.091 | – |
| Cc1cc(CC(=O)Nc2cscn2)ccc1C(=O)N[C@H](C)c1cc(-c2cnn(C)c2)nc2ccccc12 [Example 236, (R)-2-methyl-N-(1-(2-(1-methyl-1H-pyrazol-4-yl)quinolin-4-yl)ethyl)-4-(2-oxo-2-(thiazol-4-ylamino)ethyl)benzamide] | 0.003 | – |
| Cc1cc(CC(=O)Nc2cncs2)ccc1C(=O)N[C@H](C)c1cc(-c2cnn(C)c2)nc2ccccc12 [Example 237, (R)-2-methyl-N-(1-(2-(1-methyl-1H-pyrazol-4-yl)quinolin-4-yl)ethyl)-4-(2-oxo-2-(thiazol-5-ylamino)ethyl)benzamide] | 0.036 | – |
| Cc1cc(CC(=O)Nc2nccs2)ccc1C(=O)N[C@H](C)c1cc(-c2cnn(C)c2)nc2ccccc12 [Example 238, (R)-2-methyl-N-(1-(2-(1-methyl-1H-pyrazol-4-yl)quinolin-4-yl)ethyl)-4-(2-oxo-2-(thiazol-2-ylamino)ethyl)benzamide] | 0.016 | – |

Reference: patent US20240245673A1, “Papain-like protease (PLpro) inhibitors” (Pfizer Inc., priority 2022, published 2024)
